The target of experiment [1] is Mitogen-activated protein kinase 7 (Homo sapiens) (UniProt Q13164). Kind of experiment: Selectivity interaction (Kinase panel (KiNativ target engagement assay in Jurkat cells)) EUB0001635a MAPK7. Type of experiment: cell-based. The settings on record: Selectivity number of off-targets 0.0, Selectivity number of targets 233.0, Source Knowledge https://www.sciencedirect.com/science/article/pii/S2451945619300674?via%3Dihub, at 1 µM.

The target of experiment [2] is T1, Serine/threonine-protein kinase D2 (Homo sapiens) (UniProt Q9BZL6).
T1 sequence (whole entry): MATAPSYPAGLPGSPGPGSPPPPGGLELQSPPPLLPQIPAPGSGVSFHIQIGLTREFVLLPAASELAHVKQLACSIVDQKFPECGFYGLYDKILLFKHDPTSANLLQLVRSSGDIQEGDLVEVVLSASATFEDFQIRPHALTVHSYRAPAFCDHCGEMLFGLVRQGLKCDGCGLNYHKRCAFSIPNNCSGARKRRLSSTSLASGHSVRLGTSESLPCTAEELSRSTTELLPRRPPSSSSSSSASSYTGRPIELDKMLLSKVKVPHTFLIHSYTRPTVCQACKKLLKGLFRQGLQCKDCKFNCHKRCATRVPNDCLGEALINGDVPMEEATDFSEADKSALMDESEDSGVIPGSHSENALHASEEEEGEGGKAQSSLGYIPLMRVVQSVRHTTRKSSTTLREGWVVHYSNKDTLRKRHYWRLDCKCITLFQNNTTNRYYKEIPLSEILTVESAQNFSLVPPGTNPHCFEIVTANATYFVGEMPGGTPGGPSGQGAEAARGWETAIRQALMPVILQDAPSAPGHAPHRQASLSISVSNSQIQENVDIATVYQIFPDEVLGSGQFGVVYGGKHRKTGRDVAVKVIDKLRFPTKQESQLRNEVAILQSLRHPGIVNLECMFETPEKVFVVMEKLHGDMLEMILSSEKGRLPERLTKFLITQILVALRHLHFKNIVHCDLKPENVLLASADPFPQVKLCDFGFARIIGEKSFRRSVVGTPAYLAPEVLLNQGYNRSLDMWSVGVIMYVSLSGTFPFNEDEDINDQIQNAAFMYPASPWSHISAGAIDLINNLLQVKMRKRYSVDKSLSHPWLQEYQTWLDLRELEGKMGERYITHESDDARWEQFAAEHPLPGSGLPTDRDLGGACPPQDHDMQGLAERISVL
Kind of experiment: Selectivity interaction (KinomeScan (DiscoverX)) EUB0000666a PRKD2. The settings on record: at 10 µM.

In experiment [3] the target is T2, Tyrosine-protein kinase JAK1 (Homo sapiens, UniProt P23458). Kind of experiment: Selectivity interaction (SelectScreen Kinase Profiling (Thermo Fisher Scientific)) EUB0001558a JAK1. The settings on record: at 1 µM.
T2 sequence (P23458 whole entry): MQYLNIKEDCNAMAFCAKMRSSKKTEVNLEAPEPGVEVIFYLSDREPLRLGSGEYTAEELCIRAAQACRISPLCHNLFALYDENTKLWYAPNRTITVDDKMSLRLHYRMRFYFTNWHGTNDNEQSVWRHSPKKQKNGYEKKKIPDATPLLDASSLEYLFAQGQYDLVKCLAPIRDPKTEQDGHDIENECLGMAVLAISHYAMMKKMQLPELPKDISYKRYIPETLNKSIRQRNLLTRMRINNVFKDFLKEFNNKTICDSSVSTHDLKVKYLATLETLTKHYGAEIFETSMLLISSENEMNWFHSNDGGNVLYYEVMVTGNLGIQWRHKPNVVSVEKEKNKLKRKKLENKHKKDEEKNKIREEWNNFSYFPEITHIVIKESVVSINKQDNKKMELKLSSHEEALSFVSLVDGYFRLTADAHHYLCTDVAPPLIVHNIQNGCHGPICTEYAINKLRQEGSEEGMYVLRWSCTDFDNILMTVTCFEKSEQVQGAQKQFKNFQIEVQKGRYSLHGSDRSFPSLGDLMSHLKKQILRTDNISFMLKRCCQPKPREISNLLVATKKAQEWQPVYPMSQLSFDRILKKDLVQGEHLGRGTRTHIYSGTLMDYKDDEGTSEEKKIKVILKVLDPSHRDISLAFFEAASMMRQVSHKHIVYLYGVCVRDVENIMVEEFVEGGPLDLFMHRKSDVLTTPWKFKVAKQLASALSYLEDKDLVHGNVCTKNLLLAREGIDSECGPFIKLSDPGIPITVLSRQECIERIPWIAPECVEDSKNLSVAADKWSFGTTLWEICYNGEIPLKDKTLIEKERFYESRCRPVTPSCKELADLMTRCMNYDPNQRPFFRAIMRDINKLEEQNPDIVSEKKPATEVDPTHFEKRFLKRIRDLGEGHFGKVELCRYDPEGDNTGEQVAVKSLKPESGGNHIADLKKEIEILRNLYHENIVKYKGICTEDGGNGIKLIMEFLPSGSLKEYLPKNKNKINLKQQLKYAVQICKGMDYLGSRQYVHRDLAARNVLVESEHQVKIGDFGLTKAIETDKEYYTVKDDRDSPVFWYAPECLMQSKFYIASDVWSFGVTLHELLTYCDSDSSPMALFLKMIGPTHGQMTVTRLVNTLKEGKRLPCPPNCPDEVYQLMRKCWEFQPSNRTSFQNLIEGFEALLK
Another experiment concerns the target Endothelin-1 receptor (Homo sapiens, UniProt P25101). Description: Selectivity interaction (Endothelin A receptor binding assay, human recombinant ) EUB0000877a EDNRA.
For another experiment, the target named is Insulin receptor (Homo sapiens, UniProt P06213). Kind of experiment: Selectivity interaction (ActivX KiNativ screen (kinase selectivity in THP-1 cell lysates)) EUB0000639a INSR. As to conditions: lysate. The experiment is classed as subcellular.
Insulin receptor, sequence (P06213 28-758 limits assumed): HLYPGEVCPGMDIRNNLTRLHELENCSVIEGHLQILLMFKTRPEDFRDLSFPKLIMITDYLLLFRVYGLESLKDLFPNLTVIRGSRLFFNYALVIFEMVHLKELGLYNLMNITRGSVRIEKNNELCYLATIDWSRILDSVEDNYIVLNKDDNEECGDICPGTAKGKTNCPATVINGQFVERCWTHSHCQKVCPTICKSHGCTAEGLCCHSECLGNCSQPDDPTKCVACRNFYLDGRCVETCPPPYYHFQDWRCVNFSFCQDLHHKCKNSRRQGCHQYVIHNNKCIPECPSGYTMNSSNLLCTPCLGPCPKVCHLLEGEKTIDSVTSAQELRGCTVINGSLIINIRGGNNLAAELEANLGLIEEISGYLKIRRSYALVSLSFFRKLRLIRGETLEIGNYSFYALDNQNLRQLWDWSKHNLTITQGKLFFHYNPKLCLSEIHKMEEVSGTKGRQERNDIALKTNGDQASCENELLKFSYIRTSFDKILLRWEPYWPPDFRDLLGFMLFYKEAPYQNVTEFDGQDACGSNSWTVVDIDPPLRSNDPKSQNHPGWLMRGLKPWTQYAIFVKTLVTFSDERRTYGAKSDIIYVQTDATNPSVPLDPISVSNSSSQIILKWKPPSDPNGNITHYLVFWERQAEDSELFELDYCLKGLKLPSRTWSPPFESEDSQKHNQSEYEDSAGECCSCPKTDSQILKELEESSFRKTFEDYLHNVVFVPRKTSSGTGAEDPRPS
Insulin receptor, sequence (P06213 763-1382 limits assumed): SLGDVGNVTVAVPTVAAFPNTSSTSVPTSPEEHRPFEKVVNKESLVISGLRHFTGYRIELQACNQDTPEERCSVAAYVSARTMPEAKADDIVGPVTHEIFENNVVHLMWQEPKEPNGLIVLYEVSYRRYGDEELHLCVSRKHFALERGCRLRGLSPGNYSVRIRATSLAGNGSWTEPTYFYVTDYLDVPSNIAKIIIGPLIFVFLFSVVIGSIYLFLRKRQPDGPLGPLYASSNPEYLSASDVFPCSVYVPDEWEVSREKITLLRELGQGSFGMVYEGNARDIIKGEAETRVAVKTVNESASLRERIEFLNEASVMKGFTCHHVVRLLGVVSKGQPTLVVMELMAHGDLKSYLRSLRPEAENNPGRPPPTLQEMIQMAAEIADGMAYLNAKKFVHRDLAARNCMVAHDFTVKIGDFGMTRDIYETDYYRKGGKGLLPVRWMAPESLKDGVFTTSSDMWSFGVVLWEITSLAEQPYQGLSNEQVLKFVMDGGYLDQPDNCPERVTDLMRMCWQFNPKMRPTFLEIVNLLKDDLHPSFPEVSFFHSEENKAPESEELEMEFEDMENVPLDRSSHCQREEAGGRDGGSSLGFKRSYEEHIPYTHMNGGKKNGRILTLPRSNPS
Experiment [4] deals with Calcium/calmodulin-dependent protein kinase type II subunit beta (Homo sapiens) (UniProt Q13554). Kind of experiment: Selectivity interaction (ActivX KiNativ screen (kinase selectivity in THP-1 cell lysates)) EUB0000639a CAMK2B. Type of experiment: subcellular. The settings on record: lysate, at 0.2 µM.
Experiment [5] addresses Fibroblast growth factor receptor 3 (Homo sapiens, UniProt P22607). Description: Selectivity interaction (Kinase panel (Invitrogen)) EUB0000639a FGFR3. The settings on record: at 200 nM.
The target in experiment [6] is Vascular endothelial growth factor receptor 1 (Homo sapiens) (UniProt P17948). Kind of experiment: Selectivity interaction (Kinase screening (Nanosyn)) EUB0000604a FLT1.
Vascular endothelial growth factor receptor 1 (Homo sapiens), sequence (P17948 whole entry): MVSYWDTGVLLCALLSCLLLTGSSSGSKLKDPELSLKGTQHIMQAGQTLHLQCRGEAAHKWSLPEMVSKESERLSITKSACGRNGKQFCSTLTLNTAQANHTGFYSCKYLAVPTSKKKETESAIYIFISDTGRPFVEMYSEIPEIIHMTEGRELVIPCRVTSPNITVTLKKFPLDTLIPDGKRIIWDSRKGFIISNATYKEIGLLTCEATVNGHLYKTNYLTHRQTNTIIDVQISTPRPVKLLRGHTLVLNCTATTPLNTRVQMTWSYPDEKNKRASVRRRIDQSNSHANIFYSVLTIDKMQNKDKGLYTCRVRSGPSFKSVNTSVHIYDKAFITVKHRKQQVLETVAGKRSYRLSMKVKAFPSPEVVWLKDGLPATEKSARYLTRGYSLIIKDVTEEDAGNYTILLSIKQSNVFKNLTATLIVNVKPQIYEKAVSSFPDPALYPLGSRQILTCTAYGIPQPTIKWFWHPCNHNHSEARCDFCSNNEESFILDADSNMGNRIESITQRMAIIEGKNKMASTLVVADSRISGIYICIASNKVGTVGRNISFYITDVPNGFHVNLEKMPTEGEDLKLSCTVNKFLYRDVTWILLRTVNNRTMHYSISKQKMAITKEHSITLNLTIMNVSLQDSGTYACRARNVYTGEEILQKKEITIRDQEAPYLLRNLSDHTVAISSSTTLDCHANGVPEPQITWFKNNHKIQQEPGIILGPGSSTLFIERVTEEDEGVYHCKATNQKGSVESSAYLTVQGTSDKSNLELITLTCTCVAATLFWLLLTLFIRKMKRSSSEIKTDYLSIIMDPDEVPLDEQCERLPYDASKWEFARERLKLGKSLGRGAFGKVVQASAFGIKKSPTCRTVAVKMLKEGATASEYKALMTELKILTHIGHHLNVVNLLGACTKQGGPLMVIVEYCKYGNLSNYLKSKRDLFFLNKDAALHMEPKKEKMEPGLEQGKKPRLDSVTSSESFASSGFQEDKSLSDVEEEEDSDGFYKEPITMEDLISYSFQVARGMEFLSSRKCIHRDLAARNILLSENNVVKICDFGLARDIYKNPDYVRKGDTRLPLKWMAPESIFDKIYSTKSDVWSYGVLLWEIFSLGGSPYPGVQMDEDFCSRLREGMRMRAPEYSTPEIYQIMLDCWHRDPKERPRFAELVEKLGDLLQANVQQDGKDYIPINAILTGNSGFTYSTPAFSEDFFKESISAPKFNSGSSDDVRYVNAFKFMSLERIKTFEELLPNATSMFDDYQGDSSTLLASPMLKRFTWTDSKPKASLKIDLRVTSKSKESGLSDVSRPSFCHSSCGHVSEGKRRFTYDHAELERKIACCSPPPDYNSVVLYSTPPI
Experiment [7] concerns the target T3, Aurora kinase A (Homo sapiens) (UniProt O14965).
T3 sequence (whole entry): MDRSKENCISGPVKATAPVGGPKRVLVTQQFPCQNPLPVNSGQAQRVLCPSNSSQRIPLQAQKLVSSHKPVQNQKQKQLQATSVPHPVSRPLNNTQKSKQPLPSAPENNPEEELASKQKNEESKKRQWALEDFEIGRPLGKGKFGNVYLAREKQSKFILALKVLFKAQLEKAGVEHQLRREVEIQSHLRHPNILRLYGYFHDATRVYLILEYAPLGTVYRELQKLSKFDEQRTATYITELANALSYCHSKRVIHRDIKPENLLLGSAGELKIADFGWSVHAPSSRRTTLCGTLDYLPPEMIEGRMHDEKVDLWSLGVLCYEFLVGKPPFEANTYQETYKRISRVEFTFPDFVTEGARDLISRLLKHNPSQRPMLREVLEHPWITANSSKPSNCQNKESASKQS
Kind of experiment: Selectivity interaction (KinomeScan (DiscoverX)) EUB0000092b STK6. As to conditions: at 10 µM.

The target in experiment [8] is T2, Tyrosine-protein kinase JAK1. Kind of experiment: Selectivity interaction (KinomeScan (DiscoverX)) EUB0000092b JAK1. As to conditions: at 10 µM.
The target in experiment [9] is T4, Mitogen-activated protein kinase kinase kinase 12 (Homo sapiens) (UniProt Q12852).
T4 sequence (whole entry): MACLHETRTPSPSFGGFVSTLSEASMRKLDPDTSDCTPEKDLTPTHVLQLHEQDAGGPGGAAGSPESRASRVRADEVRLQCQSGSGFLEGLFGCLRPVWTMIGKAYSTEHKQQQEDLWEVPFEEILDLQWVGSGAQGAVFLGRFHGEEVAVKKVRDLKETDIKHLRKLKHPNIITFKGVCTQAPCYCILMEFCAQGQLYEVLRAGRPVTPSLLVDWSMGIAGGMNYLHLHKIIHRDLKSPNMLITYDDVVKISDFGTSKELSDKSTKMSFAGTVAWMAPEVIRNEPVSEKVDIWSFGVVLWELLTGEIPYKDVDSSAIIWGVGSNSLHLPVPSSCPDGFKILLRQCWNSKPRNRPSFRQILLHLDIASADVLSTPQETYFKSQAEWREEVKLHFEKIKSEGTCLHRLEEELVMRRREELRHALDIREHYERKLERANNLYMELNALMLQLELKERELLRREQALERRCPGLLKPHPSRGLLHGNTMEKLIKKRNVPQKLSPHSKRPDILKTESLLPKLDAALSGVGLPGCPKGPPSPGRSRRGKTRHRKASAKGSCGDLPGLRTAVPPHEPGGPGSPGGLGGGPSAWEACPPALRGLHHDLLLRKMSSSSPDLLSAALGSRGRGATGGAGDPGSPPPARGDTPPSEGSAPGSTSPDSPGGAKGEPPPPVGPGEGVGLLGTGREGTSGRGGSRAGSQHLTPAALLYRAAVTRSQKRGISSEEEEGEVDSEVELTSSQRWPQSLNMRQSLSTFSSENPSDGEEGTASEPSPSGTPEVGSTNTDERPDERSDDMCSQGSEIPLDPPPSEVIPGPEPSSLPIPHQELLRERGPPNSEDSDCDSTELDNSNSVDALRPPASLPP
Kind of experiment: Selectivity interaction (KinomeScan (DiscoverX)) EUB0000595a MAP3K12. As to conditions: at 10 µM.

Consider eight compounds from ChEMBL document CHEMBL5465560, “Selectivity Literature for EUbOPEN Chemogenomic Library” (2024).

Where only a bound is given, the exact number is not on record here.

Mitogen-activated protein kinase 7 (Homo sapiens), sequence (Q13164 2-816 limits assumed): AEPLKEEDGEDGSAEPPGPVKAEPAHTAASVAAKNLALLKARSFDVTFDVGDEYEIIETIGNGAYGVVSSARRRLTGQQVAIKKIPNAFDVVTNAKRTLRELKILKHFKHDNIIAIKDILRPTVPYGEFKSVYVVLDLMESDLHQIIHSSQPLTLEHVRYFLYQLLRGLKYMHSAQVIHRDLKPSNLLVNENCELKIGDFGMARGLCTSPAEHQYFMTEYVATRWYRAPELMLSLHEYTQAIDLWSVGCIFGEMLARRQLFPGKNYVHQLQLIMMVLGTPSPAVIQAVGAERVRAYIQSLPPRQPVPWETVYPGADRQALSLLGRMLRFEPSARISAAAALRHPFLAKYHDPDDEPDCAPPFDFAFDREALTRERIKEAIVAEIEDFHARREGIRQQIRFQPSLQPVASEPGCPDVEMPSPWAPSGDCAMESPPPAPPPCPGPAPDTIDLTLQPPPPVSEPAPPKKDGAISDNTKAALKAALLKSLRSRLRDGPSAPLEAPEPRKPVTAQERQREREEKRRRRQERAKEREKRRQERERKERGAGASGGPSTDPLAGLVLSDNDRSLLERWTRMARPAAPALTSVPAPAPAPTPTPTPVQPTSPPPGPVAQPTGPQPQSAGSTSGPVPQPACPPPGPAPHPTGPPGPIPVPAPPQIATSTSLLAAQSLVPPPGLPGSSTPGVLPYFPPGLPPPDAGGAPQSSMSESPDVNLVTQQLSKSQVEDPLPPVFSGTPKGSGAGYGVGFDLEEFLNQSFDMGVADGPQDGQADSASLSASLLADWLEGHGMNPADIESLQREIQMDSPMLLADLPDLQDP
Endothelin-1 receptor, sequence (P25101 whole entry): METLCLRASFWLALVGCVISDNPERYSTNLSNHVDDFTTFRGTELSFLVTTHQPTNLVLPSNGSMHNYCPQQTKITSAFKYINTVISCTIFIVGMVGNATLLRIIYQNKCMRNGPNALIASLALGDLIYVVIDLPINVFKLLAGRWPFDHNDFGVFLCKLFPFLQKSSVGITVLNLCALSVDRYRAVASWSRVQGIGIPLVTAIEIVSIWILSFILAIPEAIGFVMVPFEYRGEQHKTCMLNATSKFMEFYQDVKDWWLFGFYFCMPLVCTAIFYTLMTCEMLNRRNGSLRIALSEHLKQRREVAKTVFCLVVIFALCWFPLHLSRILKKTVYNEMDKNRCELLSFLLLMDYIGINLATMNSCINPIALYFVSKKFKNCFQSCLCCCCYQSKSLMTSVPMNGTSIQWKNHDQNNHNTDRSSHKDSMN

As to `C=CC(=O)Nc1ccc(C(=O)Nc2[nH]nc3c2CN(C(=O)N[C@H](CN(C)C)c2ccccc2)C3(C)C)cc1`, the % of engagement in experiment [1] is -3.1%.
The compound `O=C(NOC[C@H](O)CO)c1ccc(F)c(F)c1Nc1ccc(I)cc1F` had a % of control in [2] of 100%.
As for `CC(C)(O)[C@H](F)CN1Cc2cc(NC(=O)c3cnn4cccnc34)c(N3CCOCC3)cc2C1=O`, in [3], the % of inhibition came out at 83.5%.
Broadly, the IC50 is the concentration needed to halve the response being measured. Take `CCC(=O)N1CC[C@H](Nc2ncnc3c2CN(c2cnc(OC)c(C(F)(F)F)c2)CC3)C1` [LENIOLISIB]: the IC50 on Endothelin-1 receptor was above 30 µM.
In the case of `CC[C@@H]1[C@H](F)C(=O)N[C@@H]1COc1nccc2cc(C(N)=O)c(OC)cc12` [ZIMLOVISERTIB], the % of inhibition is -44.7% at Insulin receptor (at 0.01 µM); 10.7% on Insulin receptor (at 0.04 µM); -15.5% on Insulin receptor (at 0.2 µM); -21.5% at Insulin receptor (at 1 µM); -37.4% at Insulin receptor (at 5 µM); 4.9% in [4]. The % of inhibition in experiment [5] was -0.438%.
`Cc1cnc(Nc2ccc(F)cc2Cl)nc1-c1c[nH]c(C(=O)N[C@H](CO)c2cccc(Cl)c2)c1`: in experiment [6], the % of inhibition is 0%.
For the compound `CCC(=O)N1CCN(c2ccc(-n3c(=O)ccc4cnc5ccc(-c6cnc7ccccc7c6)cc5c43)cc2C(F)(F)F)CC1`, the results for the % of control in [7] and in experiment [8] were 100% and 76%, respectively.
The compound `COCC(=O)NC/C=C/c1ccc2ncnc(Nc3ccc(Oc4ccc(C)nc4)c(C)c3)c2c1` [CP-724714] yielded a % of control in experiment [9] of 92%.
